Reference: PubChem BioAssay (NCI)
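These data come from cells grown in 96-well plates and exposed to compound for 48 hours at five concentrations. TGI denotes the concentration required for complete inhibition of growth.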

Columns and labels:
Test in all cases: inhibition of tumour cell growth, NCI panel, 48 h
HCC-2998 colon = tested on: HCC-2998 colon
OVCAR-8 ovarian = tested on: OVCAR-8 ovarian
786-0 renal = tested on: 786-0 renal
M14 melanoma = tested on: M14 melanoma
K-562 leukemia = tested on: K-562 leukemia
DMS 273 small cell lung = tested on: DMS 273 small cell lung
SN12C renal = tested on: SN12C renal
MOLT-4 leukemia = tested on: MOLT-4 leukemia
M19-MEL melanoma = tested on: M19-MEL melanoma
SR leukemia = tested on: SR leukemia
TK-10 renal = tested on: TK-10 renal
OVCAR-3 ovarian = tested on: OVCAR-3 ovarian
HCT-116 colon = tested on: HCT-116 colon
SF-268 CNS = tested on: SF-268 CNS
SNB-78 CNS = tested on: SNB-78 CNS
SK-MEL-2 melanoma = tested on: SK-MEL-2 melanoma
SNB-75 CNS = tested on: SNB-75 CNS
RPMI-8226 leukemia = tested on: RPMI-8226 leukemia
DMS 114 small cell lung = tested on: DMS 114 small cell lung
HOP-92 NSCLC = tested on: HOP-92 NSCLC
NCI-H226 lung = tested on: NCI-H226 lung
UO-31 renal = tested on: UO-31 renal
NCI-H522 lung = tested on: NCI-H522 lung
NCI-H23 lung = tested on: NCI-H23 lung
COLO 205 colon = tested on: COLO 205 colon
CAKI-1 renal = tested on: CAKI-1 renal
HL-60(TB) leukemia = tested on: HL-60(TB) leukemia
IGROV1 ovarian = tested on: IGROV1 ovarian
SNB-19 CNS = tested on: SNB-19 CNS
UACC-257 melanoma = tested on: UACC-257 melanoma
SF-295 CNS = tested on: SF-295 CNS
MALME-3M melanoma = tested on: MALME-3M melanoma
A498 renal = tested on: A498 renal
SK-MEL-28 melanoma = tested on: SK-MEL-28 melanoma
DLD-1 colon = tested on: DLD-1 colon
CCRF-CEM leukemia = tested on: CCRF-CEM leukemia
OVCAR-4 ovarian = tested on: OVCAR-4 ovarian
SK-OV-3 ovarian = tested on: SK-OV-3 ovarian
HT29 colon = tested on: HT29 colon
SF-539 CNS = tested on: SF-539 CNS
LXFL 529 NSCLC = tested on: LXFL 529 NSCLC
UACC-62 melanoma = tested on: UACC-62 melanoma
SW-620 colon = tested on: SW-620 colon
RXF-631 renal = tested on: RXF-631 renal
A549 NSCLC = tested on: A549 NSCLC
HOP-62 NSCLC = tested on: HOP-62 NSCLC
XF 498 CNS = tested on: XF 498 CNS
EKVX NSCLC = tested on: EKVX NSCLC
KM12 colon = tested on: KM12 colon
OVCAR-5 ovarian = tested on: OVCAR-5 ovarian
RXF 393 renal = tested on: RXF 393 renal
HCT-15 colon = tested on: HCT-15 colon
HOP-18 NSCLC = tested on: HOP-18 NSCLC
KM20L2 colon = tested on: KM20L2 colon
LOX IMVI melanoma = tested on: LOX IMVI melanoma
ACHN renal = tested on: ACHN renal
NCI-H460 lung = tested on: NCI-H460 lung
U251 CNS = tested on: U251 CNS
SK-MEL-5 melanoma = tested on: SK-MEL-5 melanoma

Structure (SMILES): CCCCCCCCCCCCCCCCCCOCC(C[N+]1(C)CCC(O)CC1)OCC (stereo not given)
- TGI (HCC-2998 colon): 31.7 µM
- TGI (OVCAR-8 ovarian): 41.4 µM
- TGI (786-0 renal): 19.4 µM
- TGI (M14 melanoma): 23.4 µM
- TGI (K-562 leukemia): 19.1 µM
- TGI (DMS 273 small cell lung): 4.91 µM
- TGI (SN12C renal): 15.4 µM
- TGI (MOLT-4 leukemia): 10.6 µM
- TGI (M19-MEL melanoma): 14.4 µM
- TGI (SR leukemia): 3.73 µM
- TGI (TK-10 renal): 20.5 µM
- TGI (OVCAR-3 ovarian): 15.4 µM
- TGI (HCT-116 colon): 27.6 µM
- TGI (SF-268 CNS): 15 µM
- TGI (SNB-78 CNS): 14.7 µM
- TGI (SK-MEL-2 melanoma): 20.9 µM
- TGI (SNB-75 CNS): 19.2 µM
- TGI (RPMI-8226 leukemia): 11.5 µM
- TGI (DMS 114 small cell lung): 12.6 µM
- TGI (HOP-92 NSCLC): 4.49 µM
- TGI (NCI-H226 lung): 21.4 µM
- TGI (UO-31 renal): 27.5 µM
- TGI (NCI-H522 lung): 31 µM
- TGI (NCI-H23 lung): 16 µM
- TGI (COLO 205 colon): 14.2 µM
- TGI (CAKI-1 renal): 21.1 µM
- TGI (HL-60(TB) leukemia): 8.42 µM
- TGI (IGROV1 ovarian): 21 µM
- TGI (SNB-19 CNS): 28.3 µM
- TGI (UACC-257 melanoma): 28 µM
- TGI (SF-295 CNS): 17.9 µM
- TGI (MALME-3M melanoma): 28.8 µM
- TGI (A498 renal): 54.9 µM
- TGI (SK-MEL-28 melanoma): 33.5 µM
- TGI (DLD-1 colon): 44.8 µM
- TGI (CCRF-CEM leukemia): 5.55 µM
- TGI (OVCAR-4 ovarian): 18 µM
- TGI (SK-OV-3 ovarian): 8.22 µM
- TGI (HT29 colon): 14.9 µM
- TGI (SF-539 CNS): 32.8 µM
- TGI (LXFL 529 NSCLC): 11 µM
- TGI (UACC-62 melanoma): 19.7 µM
- TGI (SW-620 colon): 35.5 µM
- TGI (RXF-631 renal): 21.1 µM
- TGI (A549 NSCLC): 32.9 µM
- TGI (HOP-62 NSCLC): 16.7 µM
- TGI (XF 498 CNS): 29 µM
- TGI (EKVX NSCLC): 46.3 µM

Structure (SMILES): COc1ccc(NC(=O)c2oc3cc(O)ccc3c(=O)c2C)c([N+](=O)[O-])c1
- TGI (KM12 colon): > 100 µM
- TGI (HCC-2998 colon): > 100 µM
- TGI (OVCAR-8 ovarian): > 100 µM
- TGI (786-0 renal): > 100 µM
- TGI (M14 melanoma): > 100 µM
- TGI (K-562 leukemia): > 100 µM
- TGI (DMS 273 small cell lung): > 100 µM
- TGI (SN12C renal): > 100 µM
- TGI (OVCAR-5 ovarian): > 100 µM
- TGI (MOLT-4 leukemia): > 100 µM
- TGI (M19-MEL melanoma): > 100 µM
- TGI (SR leukemia): > 100 µM
- TGI (TK-10 renal): > 100 µM
- TGI (OVCAR-3 ovarian): > 100 µM
- TGI (RXF 393 renal): > 100 µM
- TGI (HCT-116 colon): > 100 µM
- TGI (SF-268 CNS): > 100 µM
- TGI (SNB-78 CNS): > 100 µM
- TGI (HCT-15 colon): > 100 µM
- TGI (HOP-18 NSCLC): > 100 µM
- TGI (SK-MEL-2 melanoma): > 100 µM
- TGI (SNB-75 CNS): > 100 µM
- TGI (DMS 114 small cell lung): > 100 µM
- TGI (HOP-92 NSCLC): > 100 µM
- TGI (NCI-H226 lung): > 100 µM
- TGI (UO-31 renal): > 100 µM
- TGI (NCI-H522 lung): > 100 µM
- TGI (NCI-H23 lung): > 100 µM
- TGI (COLO 205 colon): > 100 µM
- TGI (CAKI-1 renal): > 100 µM
- TGI (HL-60(TB) leukemia): > 100 µM
- TGI (IGROV1 ovarian): > 100 µM
- TGI (SNB-19 CNS): > 100 µM
- TGI (KM20L2 colon): > 100 µM
- TGI (UACC-257 melanoma): > 100 µM
- TGI (SF-295 CNS): > 100 µM
- TGI (MALME-3M melanoma): > 100 µM
- TGI (A498 renal): > 100 µM
- TGI (SK-MEL-28 melanoma): > 100 µM
- TGI (DLD-1 colon): > 100 µM
- TGI (CCRF-CEM leukemia): > 100 µM
- TGI (OVCAR-4 ovarian): > 100 µM
- TGI (SK-OV-3 ovarian): > 100 µM
- TGI (HT29 colon): > 100 µM
- TGI (SF-539 CNS): > 100 µM
- TGI (LOX IMVI melanoma): > 100 µM
- TGI (LXFL 529 NSCLC): > 100 µM
- TGI (UACC-62 melanoma): > 100 µM
- TGI (ACHN renal): > 100 µM
- TGI (SW-620 colon): > 100 µM
- TGI (NCI-H460 lung): > 100 µM
- TGI (A549 NSCLC): > 100 µM
- TGI (HOP-62 NSCLC): > 100 µM
- TGI (U251 CNS): > 100 µM
- TGI (SK-MEL-5 melanoma): > 100 µM
- TGI (XF 498 CNS): > 100 µM
- TGI (EKVX NSCLC): > 100 µM
